From patent publication US9365522B2, “Pyrazole amide derivative” (AMGEN INC., priority 2015, dated 2016)

Molecular target: T1, human RORγ-LBD (Homo sapiens, UniProt P51449)
T1 construct: made in house; host or cells: E. coli (BL-21)
T1 sequence (P51449 262-518): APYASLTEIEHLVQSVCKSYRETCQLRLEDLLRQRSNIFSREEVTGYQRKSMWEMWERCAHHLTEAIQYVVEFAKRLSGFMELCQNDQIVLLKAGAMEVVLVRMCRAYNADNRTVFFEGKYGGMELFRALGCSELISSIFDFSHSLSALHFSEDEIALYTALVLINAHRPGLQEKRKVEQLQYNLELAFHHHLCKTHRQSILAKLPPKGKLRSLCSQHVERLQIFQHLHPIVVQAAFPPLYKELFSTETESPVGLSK
Experiment: ROR gamma coactivator peptide recruitment Alphascreen assay (RORγ-LBD binding to GRIP1 coactivator peptide)
Format: biochemical
Conditions: 5 nM human RORγ-LBD, 30 nM 7-β-hydroxycholesterol, 50 nM biotinylated GRIP1 coactivator peptide, overnight incubation at room temperature; read-out: result (pIC50, RORγ coactivator peptide recruitment Alphascreen assay) (converted)
In short: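 Alphascreen proximity read-out after overnight room-temperature incubation, yielding pIC50 from 1-in-2 compound series (2.5% DMSO final). Mixture: 50 nM biotin-GRIP1 peptide, 30 nM 7-β-hydroxycholesterol agonist, 5 nM recombinant 6×His:Flag human RORγ-LBD (aa 262-518), 50 mM HEPES pH 7.4.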

| IC50 [µM] | Structure (SMILES) |
| --- | --- |
| 0.00603 | C[C@]1(C(=O)O)CC[C@H](n2ncc(C(=O)N(CC(=O)c3c(Cl)cccc3Cl)CC3(F)CC3)c2C(F)(F)F)CC1 [Example 611, trans-4-(4-((2-(2,6-dichlorophenyl)-2-oxoethyl)((1-fluorocyclopropyl)methyl)carbamoyl)-5-(trifluoromethyl)-1H-pyrazol-1-yl)-1-methylcyclohexanecarboxylic acid] |
| 0.0398 | C[C@]12CC[C@](CN(CC(=O)c3c(Cl)cccc3Cl)C(=O)c3cnn([C@H]4CC[C@](C)(C(=O)O)CC4)c3C(F)(F)F)(CC1)C2 [Example 612, trans-4-(4-((2-(2,6-dichlorophenyl)-2-oxoethyl)(((1r,4r)-4-methylbicyclo[2.2.1]hept-1-yl)methyl)carbamoyl)-5-(trifluoromethyl)-1H-pyrazol-1-yl)-1-methylcyclohexanecarboxylic acid] |
| 0.11 | O=C(CN(C(=O)c1cnn([C@H]2CC[C@@H](C(=O)O)CC2)c1C(F)(F)F)C1CC2(CCC2)C1)c1c(Cl)cccc1Cl [Example 613, cis-4-(4-((2-(2,6-dichlorophenyl)-2-oxoethyl)(spiro[3.3]hept-2-yl)carbamoyl)-5-(trifluoromethyl)-1H-pyrazol-1-yl)cyclohexanecarboxylic acid] |
| 0.0537 | C[C@H]1CC[C@H](CN(CC(=O)c2c(Cl)cncc2Cl)C(=O)c2cnn([C@H]3CC[C@](C)(C(=O)O)CC3)c2C(F)(F)F)O1 [Example 614, trans-4-(4-((2-(3,5-dichloro-4-pyridinyl)-2-oxoethyl)(((2R,5R)-5-methyltetrahydro-2-furanyl)methyl)carbamoyl)-5-(trifluoromethyl)-1H-pyrazol-1-yl)-1-methylcyclohexanecarboxylic acid] |
| 0.049 | C[C@]12CC[C@](CN(CC(=O)c3c(Cl)cccc3Cl)C(=O)c3cnn([C@H]4CC[C@@H](C(=O)O)CC4)c3C(F)(F)F)(CC1)C2 [Example 615, cis-4-(4-((2-(2,6-dichlorophenyl)-2-oxoethyl)(((1r,4r)-4-methylbicyclo[2.2.1]hept-1-yl)methyl)carbamoyl)-5-(trifluoromethyl)-1H-pyrazol-1-yl)cyclohexanecarboxylic acid] |
| 0.0339 | CC1(C)CC[C@H]1N(CC(=O)c1c(Cl)cncc1Cl)C(=O)c1cnn([C@H]2CC[C@](C)(C(=O)O)CC2)c1C(F)(F)F [Example 616, trans-4-(4-((2-(3,5-dichloro-4-pyridinyl)-2-oxoethyl)((1R)-2,2-dimethylcyclobutyl)carbamoyl)-5-(trifluoromethyl)-1H-pyrazol-1-yl)-1-methylcyclohexanecarboxylic acid] |
| 0.117 | CC1(C)CC[C@@H]1N(CC(=O)c1c(Cl)cncc1Cl)C(=O)c1cnn([C@H]2CC[C@](C)(C(=O)O)CC2)c1C(F)(F)F [Example 617, trans-4-(4-((2-(3,5-dichloro-4-pyridinyl)-2-oxoethyl)((1S)-2,2-dimethylcyclobutyl)carbamoyl)-5-(trifluoromethyl)-1H-pyrazol-1-yl)-1-methylcyclohexanecarboxylic acid] |
| 0.0105 | C=CCC1(CC=C)C[C@H](Cc2c(Cl)cncc2Cl)N(C(=O)c2cnn([C@H]3CC[C@](C)(C(=O)O)CC3)c2C(F)(F)F)C1 [Example 618, trans-4-(4-(((2R)-2-((3,5-dichloro-4-pyridinyl)methyl)-4,4-di(2-propen-1-yl)-1-pyrrolidinyl)carbonyl)-5-(trifluoromethyl)-1H-pyrazol-1-yl)-1-methylcyclohexanecarboxylic acid] |
| 0.00776 | CC1(C)CC[C@H]1N(CC(=O)c1c(Cl)cccc1Cl)C(=O)c1cnn([C@H]2CC[C@](C)(C(=O)O)CC2)c1C(F)(F)F [Example 619] |
| 0.0389 | CC1(C)CC[C@@H]1N(CC(=O)c1c(Cl)cccc1Cl)C(=O)c1cnn([C@H]2CC[C@](C)(C(=O)O)CC2)c1C(F)(F)F [Example 620] |
| 0.302 | O=C(c1cnn([C@H]2CC[C@@H](C(=O)O)CC2)c1C(F)(F)F)N(CCc1c(Cl)cncc1Cl)[C@@H]1CCC12CCC2 [Example 621, cis-4-(4-((2-(3,5-dichloro-4-pyridinyl)ethyl)((1R)-spiro[3.3]hept-1-yl)carbamoyl)-5-(trifluoromethyl)-1H-pyrazol-1-yl)cyclohexanecarboxylic acid] |
| 0.229 | CC(C)(C#N)CCN(CC(=O)c1c(Cl)cccc1Cl)C(=O)c1cnn([C@H]2CC[C@](C)(C(=O)O)CC2)c1C(F)(F)F [Example 622, trans-4-(4-((3-cyano-3-methylbutyl)(2-(2,6-dichlorophenyl)-2-oxoethyl)carbamoyl)-5-(trifluoromethyl)-1H-pyrazol-1-yl)-1-methylcyclohexanecarboxylic acid] |
| 0.102 | O=C(CN(C(=O)c1cnn([C@H]2CC[C@@H](C(=O)O)CC2)c1C(F)(F)F)[C@H]1CC12CCCC2)c1c(Cl)cccc1Cl [Example 624, cis-4-(4-((2-(2,6-dichlorophenyl)-2-oxoethyl)((1S)-spiro[2.4]hept-1-yl)carbamoyl)-5-(trifluoromethyl)-1H-pyrazol-1-yl)cyclohexanecarboxylic acid] |
| 0.00282 | C[C@]1(C(=O)O)CC[C@H](n2ncc(C(=O)N(CC(=O)c3c(Cl)cccc3Cl)[C@H]3CCC34CCCC4)c2C(F)(F)F)CC1 [Example 626] |
| 0.0269 | CC1(C)C[C@H](CN(CC(=O)c2c(Cl)cccc2Cl)C(=O)c2cnn([C@H]3CC[C@](C)(C(=O)O)CC3)c2C(F)(F)F)O1 [Example 628, trans-4-(4-((2-(2,6-dichlorophenyl)-2-oxoethyl)(((2R)-4,4-dimethyl-2-oxetanyl)methyl)carbamoyl)-5-(trifluoromethyl)-1H-pyrazol-1-yl)-1-methylcyclohexanecarboxylic acid] |
| 0.0457 | CC1(C)C[C@@H](CN(CC(=O)c2c(Cl)cccc2Cl)C(=O)c2cnn([C@H]3CC[C@](C)(C(=O)O)CC3)c2C(F)(F)F)O1 [Example 629, trans-4-(4-((2-(2,6-dichlorophenyl)-2-oxoethyl)(((2S)-4,4-dimethyl-2-oxetanyl)methyl)carbamoyl)-5-(trifluoromethyl)-1H-pyrazol-1-yl)-1-methylcyclohexanecarboxylic acid] |
| 0.00398 | Cc1cc(Cl)c(C(=O)CN(CC2(F)CC2)C(=O)c2cnn([C@H]3CC[C@](C)(C(=O)O)CC3)c2C(F)(F)F)c(Cl)c1 [Example 630, trans-4-(4-((2-(2,6-dichloro-4-methylphenyl)-2-oxoethyl)((1-fluorocyclopropyl)methyl)carbamoyl)-5-(trifluoromethyl)-1H-pyrazol-1-yl)-1-methylcyclohexanecarboxylic acid] |
| 0.01 | Cc1cc(Cl)c(C(=O)CN(CC2(F)CCCC2)C(=O)c2cnn([C@H]3CC[C@@H](C(=O)O)CC3)c2C(F)(F)F)c(Cl)c1 [Example 631, cis-4-(4-((2-(2,6-dichloro-4-methylphenyl)-2-oxoethyl)((1-fluorocyclopentyl)methyl)carbamoyl)-5-(trifluoromethyl)-1H-pyrazol-1-yl)cyclohexanecarboxylic acid] |
| 0.00398 | C[C@]1(C(=O)O)CC[C@H](n2ncc(C(=O)N(CC(=O)c3c(Cl)cccc3Cl)C3CC4(CCC4)C3)c2C(F)(F)F)CC1 [Example 632, trans-4-(4-((2-(2,6-dichlorophenyl)-2-oxoethyl)(spiro[3.3]hept-2-yl)carbamoyl)-5-(trifluoromethyl)-1H-pyrazol-1-yl)-1-methylcyclohexanecarboxylic acid] |
